Experimental data reported in PMC11477717, “Synthesis of Carborane–Thiazole Conjugates as Tyrosinase and 11β-Hydroxysteroid Dehydrogenase Inhibitors: Antiproliferative Activity and Molecular Docking Studies” (Molecules, 2024).
Like-named read-outs stand apart in the source and are kept apart here.

Experiments:
B16F10 (murine melanoma) = assay: MTT antiproliferative assay, B16F10; type: cell-based; conditions: for IC50: MTT, 72 h, B16F10 cells, read-out: IC50 ± SD B16F10; for SI HUVEC/ B16F10: selectivity index = IC50 normal cell line / IC50 cancer cell line
Experimental: (§1) All cell lines were obtained from ATCC, and all chemicals were purchased from Sigma-Aldrich, St. Louis, MO, USA. […] All media were supplemented with antibiotic and antimycotic solutions, according to the manufacturers’ instructions. MTT cytotoxicity assessments were performed as described previously. […] The cells counted using an automated cell counter (Countess® II FL, Invitrogen by Thermo Fisher Scientific Inc., Waltham, MA, USA) were plated in 96-well plates (Nunc Edge 2F, Thermo Fisher Scientific Inc.) at a density of 0.1 × 10^4 per well. After an additional 72 h, cells underwent an MTT cytotoxicity assay (see below). The IC50 values were calculated using ED50plus v 1.0 freeware software (Instituto Nacional de Enfermedades Respiratorias, Mexico City, Mexico). Each cell line was tested in three independent replicates.
(§2) After the incubation time was complete, the medium was removed and crystals of formazan were solubilized in pure isopropanol. The absorbance readout was conducted immediately using a plate reader, Multiskan Spectrum, at 570 nm (Thermo Fisher Scientific Inc., Waltham, MA, USA). The background optical density was measured in the wells filled with the culture medium, without any cells.

mushroom tyrosinase [1] = molecular target: T1, mushroom tyrosinase (Agaricus bisporus, UniProt C7FF04); assay: Mushroom tyrosinase inhibition assay (L-DOPA, dopachrome 475 nm); type: biochemical
T1 construct: purchased Sigma-Aldrich
T1 sequence (C7FF04 1-392 limits assumed): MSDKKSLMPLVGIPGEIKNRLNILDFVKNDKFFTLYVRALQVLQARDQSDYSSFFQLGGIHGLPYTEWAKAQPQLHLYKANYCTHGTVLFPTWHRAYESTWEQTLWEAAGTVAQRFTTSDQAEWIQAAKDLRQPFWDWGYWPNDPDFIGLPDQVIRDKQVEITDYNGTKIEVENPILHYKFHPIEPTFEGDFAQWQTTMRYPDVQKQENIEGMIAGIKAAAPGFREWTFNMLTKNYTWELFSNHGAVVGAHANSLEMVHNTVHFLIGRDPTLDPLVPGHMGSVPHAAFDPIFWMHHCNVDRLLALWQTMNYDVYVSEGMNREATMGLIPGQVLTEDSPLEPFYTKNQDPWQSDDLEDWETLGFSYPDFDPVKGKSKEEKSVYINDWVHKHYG
Experimental: The mushroom tyrosinase (Sigma-Aldrich) inhibition was performed following previously reported methods. […] The inhibitor solutions were prepared in DMSO with an initial concentration of 1 mM. Different aliquots were added to the solution containing the buffer, L-DOPA, and EDTA, with the enzyme being added last. […] Ascorbic acid was used as a reference inhibitor with an initial concentration of 1 mM. The IC50 values were calculated from the equation generated via exponential fit of the experimental data.

[2] = test system: HUVEC (human umbilical vein endothelial cells); assay: MTT antiproliferative assay, HUVEC healthy control; type: cell-based; conditions: 72 h, HUVEC normal cells, read-out: IC50 ± SD HUVEC
Experimental: All cell lines were obtained from ATCC, and all chemicals were purchased from Sigma-Aldrich, St. Louis, MO, USA. Briefly, cells were cultivated in a controlled atmosphere using DMEM medium with fetal bovine serum (FBS) at a final concentration of 10% (A-172), an L15 medium with 15% FBS, cultivated without CO2 (MDA-MB-231), F12K with a heparin final concentration of 0.1 mg/mL, endothelial cell growth supplement with a final concentration of 0.03 mg/mL (HUVEC), and RPMI with 5% FBS. All media were supplemented with antibiotic and antimycotic solutions, according to the manufacturers’ instructions. MTT cytotoxicity assessments were performed as described previously. Briefly, cell lines A172, B16F10, MDA-MB-231, and HUVEC were seeded 24 h prior to the addition of the tested compounds. The cells counted using an automated cell counter (Countess® II FL, Invitrogen by Thermo Fisher Scientific Inc., Waltham, MA, USA) were plated in 96-well plates (Nunc Edge 2F, Thermo Fisher Scientific Inc.) at a density of 0.1 × 10^4 per well. After an additional 72 h, cells underwent an MTT cytotoxicity assay (see below). The IC50 values were calculated using ED50plus v 1.0 freeware software (Instituto Nacional de Enfermedades Respiratorias, Mexico City, Mexico). Each cell line was tested in three independent replicates.
as §2, with “Twenty microliters of an MTT solution (MTT: 3-(4,5-dimethylthiazol-2-yl)-2,5-diphenyl tetrazolium bromide, stock solution: 5 mg/mL) was added to each cell line for 2 h (A172, B16F10, MDA-MB-231, and HUVEC). After” for “After”

[3] = test system: A172 (human brain glioblastoma); assay: MTT antiproliferative assay, A172; type: cell-based; conditions: for IC50: MTT, 72 h, A172 cells, read-out: IC50 ± SD A172; for SI HUVEC/A172: selectivity index = IC50 normal cell line / IC50 cancer cell line
Experimental: as §1, §2

[4] = test system: MDA-MB-231 (human breast adenocarcinoma); assay: MTT antiproliferative assay, MDA-MB-231; type: cell-based; conditions: for IC50: MTT, 72 h, MDA-MB-231 cells, read-out: IC50 ± SD MDA-MB-231; for SI HUVEC/ MDA-MB-231: selectivity index = IC50 normal cell line / IC50 cancer cell line
Experimental: as §1, §2

mushroom tyrosinase [5] = molecular target: T1, mushroom tyrosinase; assay: Kinetic analysis of the inhibition of tyrosinase (Lineweaver-Burk); type: biochemical; conditions: compound at 0.05 mM; for Mechanism of Inhibition: Lineweaver-Burk plots; for Vmax: L-DOPA 100-250 µM
Experimental: A series of experiments were performed to determine the inhibition kinetics of compounds by following the already reported method. The inhibitor concentrations for compounds were 50 and 100 µM. The substrate L-DOPA concentration was between 100 and 250 µM in all kinetic studies. Maximal initial velocity was determined from the initial linear portion of absorbance up to ten minutes after the addition of the enzyme. The inhibition type of the enzyme, Michaelis constant (KM), and maximal velocity (Vmax) were determined by Lineweaver–Burk plots of the inverse of velocities (1/V) versus the inverse of substrate concentration 1/[L-DOPA] mM^−1.

11β-HSD1 = molecular target: T2, 11β-HSD1 (Homo sapiens, UniProt P28845); assay: Inhibition of 11β-HSD1 assay (cortisone to cortisol, microsomes, cortisol ELISA); type: biochemical; conditions: inhibitor 10 µM, 150 min, 37 °C
T2 construct: tissue XenoTech Lot No. 1410013; host or cells: pooled human liver microsomes
T2 sequence (P28845 whole entry): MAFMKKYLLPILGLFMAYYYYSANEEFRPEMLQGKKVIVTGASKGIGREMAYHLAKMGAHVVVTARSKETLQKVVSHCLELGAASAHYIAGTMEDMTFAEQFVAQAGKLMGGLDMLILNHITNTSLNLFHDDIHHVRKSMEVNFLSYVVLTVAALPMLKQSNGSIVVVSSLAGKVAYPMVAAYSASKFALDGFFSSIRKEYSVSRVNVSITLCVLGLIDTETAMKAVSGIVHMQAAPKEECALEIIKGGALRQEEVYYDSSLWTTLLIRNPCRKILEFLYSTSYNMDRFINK
Experimental: L160706125, was obtained from Cloud-Clone Corp. PBS, Lot No. H161008, was obtained from Pan Biotech. […] L191113457, was obtained from Cloud-Clone Corp. […] The microplates were incubated on an orbital shaker for 150 min at 37 °C. […] The quantity of cortisol formed from cortisone was determined using a cortisol ELISA kit, […].

[6] = L-DOPA 0.17 mM, pH 6.8, room temperature, read-out: IC50 ± SD mushroom tyrosinase

Compound | IC50 (B16F10 (murine melanoma)) [µM] | SI HUVEC/ B16F10 (B16F10 (murine melanoma)) | IC50 (mushroom tyrosinase [1]; [6]) [mM] | IC50 [2] [µM] | IC50 [3] [µM] | IC50 [4] [µM] | Mechanism of Inhibition (mushroom tyrosinase [5]) | Vmax (mushroom tyrosinase [5]) [mM/min] | SI HUVEC/A172 [3] | SI HUVEC/ MDA-MB-231 [4] | IC50 (mushroom tyrosinase [1]; rounded values in SAR summary, unit mM, read-out: IC50 tyrosinase inhibition) [mM] | inhibition at 10 µM (11β-HSD1) [%] | IC50 (B16F10 (murine melanoma); Mus musculus, B16-F10) [µM] | IC50 ([2]; Homo sapiens) [µM] | IC50 ([3]; Homo sapiens, A 172) [µM] | IC50 ([4]; Homo sapiens) [µM]
2-(2-(1,2-Dicarba-closo-Dodecaboranylmethylene)Hydrazinyl)-4-(3,4,5-Trimethoxyphenyl)Thiazole [4i] | 5.88 | >1.70 | 0.18 ± 0.00783 | > 10 | > 10 | > 10 | Mixed | 0.5474 | – | – | – | – | – | – | – | –
4-(2-(2-(1,2-Dicarba-closo-Dodecaboranylmethylene)Hydrazinyl)Thiazol-4-yl)Benzene-1-Sulfonyl Fluoride [4j] | 5.75 ± 0.46 | >1.74 | – | > 10 | 6.4 ± 0.71 | 6.43 ± 0.23 | Mixed | 0.7876 | >1.56 | >1.56 | – | – | – | – | – | –
4-(2-(2-(1,2-Dicarba-closo-Dodecaboranylmethylene)Hydrazinyl)Thiazol-4-yl)Benzonitrile [4h] | 5.56 ± 0.3 | 1.11 | – | 6.17 ± 0.35 | 7.72 ± 1.25 | 6.64 ± 0.81 | Mixed | 0.1258 | 0.80 | 0.93 | – | – | – | – | – | –
4-(Adamant-1-yl)-2-(2-(1,2-Dicarba-closo-Dodecaboranylmethylene)Hydrazinyl)Thiazole [4k] | > 10 | – | 0.134 ± 0.00584 | 5.86 ± 0.34 | > 10 | > 10 | Mixed | 0.7863 | – | – | 0.134 | – | – | – | – | –
O=C1O[C@H]([C@@H](O)CO)C(O)=C1O [Ascorbic acid, reference compound] | – | – | 0.387 ± 0.012 | – | – | – | – | – | – | – | – | – | – | – | – | –
CC1(C)[C@@H](OC(=O)CCC(=O)O)CC[C@]2(C)[C@H]3C(=O)C=C4[C@@H]5C[C@@](C)(C(=O)O)CC[C@]5(C)CC[C@@]4(C)[C@]3(C)CC[C@@H]12 [Carbenoxolone, carbenoxolone, reference compound] | – | – | – | – | – | – | – | – | – | – | – | 88.9 | – | – | – | –
O=C(O)CCCc1ccc(N(CCCl)CCCl)cc1 [chlorambucil, reference compound] | – | 1.37 | – | – | – | – | – | – | – | – | – | – | 5.44 ± 0.19 | 7.43 ± 0.54 | > 10 | > 10
